For data set [1], the system named is GABAA receptor alpha4beta1delta (Homo sapiens). The experiment in a line: Positive allosteric modulation of human recombinant alpha4beta1delta GABAA receptor expressed in HEK293 cells assessed as GABA-induced response in presence of GABA EC20 by FMP assay.
Data set [2] concerns the target Gamma-aminobutyric acid receptor subunit alpha-4/beta-1/delta (Homo sapiens, UniProt O14764+P18505+P48169). The experiment in a line: Positive allosteric modulation of human recombinant alpha4beta1delta GABAA receptor expressed in delta-HEK cells assessed as potentiation of GABA-induced response in presence of GABA EC20 by FMP assay. The class given is cell-based, HEK293.

Data set [3] can be described thus: Solubility of compound. The class given is physicochemical.

Molecules are shown by their SMILES.

Chain of Gamma-aminobutyric acid receptor subunit alpha-4/beta-1/delta (P48169 whole entry): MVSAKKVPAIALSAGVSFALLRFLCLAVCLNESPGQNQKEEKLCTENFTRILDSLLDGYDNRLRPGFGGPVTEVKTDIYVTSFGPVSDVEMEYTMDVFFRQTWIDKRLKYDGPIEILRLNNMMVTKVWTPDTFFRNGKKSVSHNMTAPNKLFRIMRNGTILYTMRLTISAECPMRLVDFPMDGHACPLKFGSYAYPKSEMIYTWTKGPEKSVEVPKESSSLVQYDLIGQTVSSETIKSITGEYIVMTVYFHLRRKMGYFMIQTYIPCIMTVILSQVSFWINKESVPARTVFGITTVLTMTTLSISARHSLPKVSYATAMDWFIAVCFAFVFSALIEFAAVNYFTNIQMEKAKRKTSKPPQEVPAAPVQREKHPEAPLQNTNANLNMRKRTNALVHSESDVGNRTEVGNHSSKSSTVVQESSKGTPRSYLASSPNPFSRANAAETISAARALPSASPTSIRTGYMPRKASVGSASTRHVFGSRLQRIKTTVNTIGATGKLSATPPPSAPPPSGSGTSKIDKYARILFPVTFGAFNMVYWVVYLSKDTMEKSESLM
Chain of Gamma-aminobutyric acid receptor subunit alpha-4/beta-1/delta (O14764 whole entry): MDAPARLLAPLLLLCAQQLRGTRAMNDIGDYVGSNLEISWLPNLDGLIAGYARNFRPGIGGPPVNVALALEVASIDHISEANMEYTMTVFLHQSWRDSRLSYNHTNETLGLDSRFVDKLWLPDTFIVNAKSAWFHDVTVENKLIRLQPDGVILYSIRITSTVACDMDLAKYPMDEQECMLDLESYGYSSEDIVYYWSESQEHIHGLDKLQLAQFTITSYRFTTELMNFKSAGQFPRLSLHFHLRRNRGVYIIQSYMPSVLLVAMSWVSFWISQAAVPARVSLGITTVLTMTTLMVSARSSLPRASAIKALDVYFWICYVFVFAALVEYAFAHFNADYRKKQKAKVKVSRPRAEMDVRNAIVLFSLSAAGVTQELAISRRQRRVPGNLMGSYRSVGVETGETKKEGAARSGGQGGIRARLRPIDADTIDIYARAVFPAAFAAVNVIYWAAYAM
Chain of Gamma-aminobutyric acid receptor subunit alpha-4/beta-1/delta (P18505 whole entry): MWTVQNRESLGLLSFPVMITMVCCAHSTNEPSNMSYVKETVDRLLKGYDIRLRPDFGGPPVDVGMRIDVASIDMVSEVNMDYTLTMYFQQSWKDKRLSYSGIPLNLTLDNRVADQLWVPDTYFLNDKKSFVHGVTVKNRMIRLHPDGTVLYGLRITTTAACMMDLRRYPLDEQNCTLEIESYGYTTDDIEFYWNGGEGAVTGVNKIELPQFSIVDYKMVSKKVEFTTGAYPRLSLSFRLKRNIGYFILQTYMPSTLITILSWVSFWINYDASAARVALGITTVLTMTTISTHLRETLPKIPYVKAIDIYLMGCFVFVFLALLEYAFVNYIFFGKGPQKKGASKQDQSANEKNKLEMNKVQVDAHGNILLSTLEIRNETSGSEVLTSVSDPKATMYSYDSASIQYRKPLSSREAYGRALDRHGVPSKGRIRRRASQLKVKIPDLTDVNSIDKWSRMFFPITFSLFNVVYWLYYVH

By EC50 is commonly meant the concentration at which the effect is half-maximal. Take `Cc1ccc2nc(-c3cccs3)c(NC(=O)c3ccc(Cl)cc3)n2c1`: the results for the EC50 in data set [1] and in data set [2] were 162 nM and 160 nM, respectively.
On the same counts, the results for `O=C(Nc1c(-c2cccs2)nc2ccccn12)c1ccc(Cl)cc1` are 977 nM and 980 nM.
Consider `O=C(Nc1c(-c2cccs2)nc2ccc(Br)cn12)c1ccc(Cl)cc1`, for which the EC50 in data set [1] was 60.3 nM; in data set [2], 60 nM.
With `O=C(Nc1c(-c2cccs2)nc2ccc(Cl)cn12)c1ccc(Cl)cc1`, the EC50 in data set [1] is 145 nM; in data set [2], 140 nM.
Regarding `O=C(Nc1c(-c2cccs2)nc2ccc(F)cn12)c1ccc(Cl)cc1`, the figures for the EC50 in data set [1] and in data set [2] were 1910 nM and 1920 nM, respectively.
For `O=C(Nc1c(-c2cccs2)nc2ccc(C(F)(F)F)cn12)c1ccc(Cl)cc1`, in that order: 1100 nM and 1100 nM.
Consider `Clc1ccc(-c2noc(-c3c(-c4ccccc4)nc4ccccn34)n2)cc1`, for which the solubility result in data set [3] was “Insoluble”.

For the origin of these results see ChEMBL document CHEMBL5055624, “Structural Determinants for the Mode of Action of Imidazopyridine DS2 at δ-Containing γ-Aminobutyric Acid Type A Receptors” (J Med Chem, 2021).
